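Method: 48-hour compound exposure of cells in 96-well plates, five concentrations, linear interpolation of endpoints. The concentration for 50% growth inhibition is given as GI50. Definition used: TGI = concentration required for complete inhibition of growth.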
How the values were obtained:
Test in all cases: DTP human tumour cell line panel, 48 h
[1] = test system: SK-OV-3 ovarian
[2] = test system: A549 NSCLC
[3] = test system: SF-539 CNS
[4] = test system: NCI/ADR-RES ovarian
[5] = test system: M14 melanoma
[6] = test system: COLO 205 colon
[7] = test system: HS 578T breast
[8] = test system: 786-0 renal
[9] = test system: NCI-H522 lung
[10] = test system: HL-60(TB) leukemia

| Compound | GI50 [1] [µM] | TGI [1] [µM] | GI50 [2] [µM] | TGI [2] [µM] | GI50 [3] [µM] | TGI [3] [µM] | GI50 [4] [µM] | TGI [4] [µM] | GI50 [5] [µM] | TGI [5] [µM] | GI50 [6] [µM] | TGI [6] [µM] | GI50 [7] [µM] | TGI [7] [µM] | GI50 [8] [µM] | TGI [8] [µM] | GI50 [9] [µM] | TGI [9] [µM] | GI50 [10] [nM] | TGI [10] [µM] |
| --- | --- | --- | --- | --- | --- | --- | --- | --- | --- | --- | --- | --- | --- | --- | --- | --- | --- | --- | --- | --- |
| CCn1cnc(C[C@H](NC(=O)[C@@H](NC(=O)Nc2cc(C(F)(F)F)cc(C(F)(F)F)c2)C(C)(C)C)C(=O)OC)c1 | > 10 | > 10 | > 10 | > 10 | > 10 | > 10 | > 10 | > 10 | > 10 | > 10 | > 10 | > 10 | > 10 | > 10 | > 10 | > 10 | > 10 | > 10 | > 10000 | > 10 |
| CCOC(=O)c1c(C)n(Cc2ccc(Cl)cc2Cl)c2c1cc(O)c1[nH]c(Cc3ccccc3)nc12 | 16.3 | 32 | 2.86 | 14 | 7.62 | 19.9 | 4.79 | 17.3 | 11 | 37.5 | 5.04 | 30.1 | 1.53 | 3.8 | 3.67 | 13.7 | 3.2 | 15.6 | 2270 | 5.38 |
| CCOC(=O)CCC(NC(=O)c1ccc(Oc2nc3cc(N)cc(N)c3nc2-c2ccccc2)cc1)C(=O)OCC (stereo not given) | 27.9 | 97.7 | > 100 | > 100 | 34 | > 100 | 27.5 | > 100 | 40 | > 100 | 29.9 | > 100 | 43.7 | > 100 | 89 | > 100 | 27.5 | > 100 | 31500 | 95 |
| N#C/C(=C\c1ccccn1)c1nc2ccccc2o1 | 45.9 | > 100 | 36.5 | > 100 | 23.8 | 66.5 | 33.4 | > 100 | 30.7 | > 100 | 44.9 | > 100 | 35.1 | > 100 | 35.3 | > 100 | 16.6 | 37 | 15300 | 76.2 |
| C=CC(=O)N1CCN(c2nc(OC[C@@H]3CCCN3C)nc3c(F)c(-c4nc(N)cc(C)c4C(F)(F)F)c(Cl)cc23)[C@@H](C)C1 | 2.62 | 6.42 | 3.36 | 13.6 | 1.73 | 3.51 | 12.8 | 27.8 | 1.85 | 3.57 | 1.86 | 3.5 | 1.83 | 4.53 | 3.6 | 15.3 | 1.21 | 2.75 | 2910 | > 100 |
| O=NN(CC(=O)NNc1ccccc1)CC(=O)NNc1ccccc1 | > 100 | > 100 | > 23.1 | > 100 | 2.84 | 10.1 | 14.2 | > 100 | 3.8 | > 100 | 5.69 | > 59.2 | > 100 | > 100 | 7.85 | > 100 | 1.27 | > 100 | 534 | > 100 |
| O=[N+]([O-])c1cc2c(ccc3ccccc32)o1 | 0.571 | 6.25 | 0.413 | 3.12 | 0.617 | 2.97 | 0.635 | 5.96 | 0.173 | 0.472 | 0.268 | 1.04 | 1.4 | 5.28 | 0.72 | 3.63 | 0.563 | 2.18 | 331 | 4.52 |
| CCOC(=O)c1nc2sc(Cl)cn2c1/C=N/N=C(N)N | 44.3 | 98.3 | 26.9 | > 58.3 | 42.7 | > 100 | 39 | > 83.4 | 18.8 | 45.6 | 15.1 | 37.9 | 19.1 | 74.5 | 18.6 | 39.8 | 20.5 | 47.1 | 26100 | > 100 |
| O=C1/C(=C/c2ccc([N+](=O)[O-])s2)Oc2ccc(Br)cc21 | 2.09 | 5.04 | 0.376 | 1.68 | 0.212 | 0.517 | 0.497 | 4.91 | 0.423 | 1.9 | 0.47 | 1.86 | 0.448 | > 100 | 0.565 | 4.84 | 0.177 | 0.351 | 487 | 7.5 |
| CC(=O)OC1CCC2(C)C(=CCC3C2CCC2(C)C3CC3OC4(CCC(C)CN4)C(C)C32)C1 (stereo not given) |  | > 100 |  | > 100 |  | > 100 |  | > 100 |  | > 100 |  | > 100 |  | > 100 |  | > 100 |  | > 100 |  | > 100 |

— PubChem BioAssay (NCI)
